Laboratory results: patent publication US20250057837A1, “Methods for Treating HCV” (priority 2015, published 2025)

Legend:
[1] = test system: GT3a NS3 protease replicon Q168R co-selected with Y56H; assay: Resistant colony selection, replicon containing GT3a NS3 protease (Q168R+Y56H); assay type: cell-based, hepatitis C virus
[2] = assay type: in vivo, human; details: for impact of HCV genotype and RBV coadministration on exposures: GT1-, GT2- or GT3-infected subjects
Source text: Blood samples for pharmacokinetic analysis were collected throughout the study treatment period.

[3] = test system: GT1b replicon NS3 A156V variant; assay: Resistant colony selection, GT1b subgenomic replicon cells; assay type: cell-based, hepatitis C virus; details: A156V in GT1b
[4] = test system: GT1a replicon NS3 A156T variant; assay: Resistant colony selection, GT1a subgenomic replicon cells; assay type: cell-based, hepatitis C virus; details: A156T in GT1a
[5] = test system: GT3a NS3 protease replicon A156G variant; assay: Resistant colony selection, replicon containing GT3a NS3 protease (A156G); assay type: cell-based, hepatitis C virus; details: A156G alone
[6] = test system: resistance-associated variants in GT 1a (H77) replicon; assay: Activity against resistance-associated variants in GT 1a replicon; assay type: cell-based, hepatitis C virus
[7] = test system: resistance-associated variants in GT 1b (Con-1) replicon; assay: Activity against resistance-associated variants in GT 1b replicon; assay type: cell-based, hepatitis C virus
[8] = Phase 1 drug-drug interaction with tacrolimus in healthy subjects; details: coadministered with tacrolimus 1 mg
[9] = Phase 1 drug-drug interaction with cyclosporine in healthy subjects; details: coadministered with cyclosporine 100 mg
[10] = Phase 1 single and multiple ascending dose and food effect study of Compound 2 in healthy subjects
Procedure: This was a blinded, randomized, placebo-controlled Phase 1 study. […] Safety and tolerability were assessed throughout the study.

[11] = human, in vivo

| SMILES | loss in susceptibility conferred by variant [1] [fold] | impact of HCV genotype and RBV coadministration on exposures [2] | impact of Compound 2 on Compound 1 exposures ([2]; coadministration) | reduced susceptibility conferred by variant [3] [fold] | reduced susceptibility conferred by variant [4] [fold] | loss in susceptibility conferred by variant [5] [fold] | inhibitory activity against NS3 resistance-associated variants ([6]; V36M, R155K, D168A and D168V in GT 1a (H77)) | activity against variants at NS3 amino acid positions 155 and 168 ([6]; common GT1a variants conferring resistance to other HCV protease inhibitors) | activity against NS5A inhibitor and NS5B inhibitor resistance-associated variants ([6]; e.g. M28T, M28V, Q30D, Q30R, Y93C, Y93H, Y93N, L31V+Y93H, C316Y, M414T, Y448C, Y448H, S556G and S559G in GT1a) | inhibitory activity against NS3 resistance-associated variants ([7]; T54A, R155K, D168V and V170A in GT 1b (Con-1)) | activity against variants at NS3 amino acid positions 155 and 168 ([7]; common GT1b variants conferring resistance to other HCV protease inhibitors) | activity against NS5A inhibitor and NS5B inhibitor resistance-associated variants ([7]; e.g. L28T, Y93H, S282T, C316Y, Y448H and S556G in GT 1b) | steady-state Cmax, AUC24, and C24 in plasma, change [8] [%] | steady-state AUC24 in plasma, increase [9] [%] | steady-state C24 in plasma, increase [9] [%] | steady-state Cmax in plasma, increase [9] [%] | severity of adverse events ([10]; SAD 1.5-600 mg, MAD 30-600 mg QD 10 days) | maximum tolerated dose ([10]; SAD and MAD portions) | dose-normalized Cmax and AUCt, change [11] [%] |
| --- | --- | --- | --- | --- | --- | --- | --- | --- | --- | --- | --- | --- | --- | --- | --- | --- | --- | --- | --- |
| CC(C)(C)[C@@H]1NC(=O)O[C@@H]2CCC[C@H]2OC/C=C/C(F)(F)c2nc3ccccc3nc2O[C@@H]2C[C@@H](C(=O)N[C@]3(C(=O)NS(=O)(=O)C4(C)CC4)C[C@H]3C(F)F)N(C2)C1=O [Compound 1] | 1100 | no impact | minimal impact | 1800 | 1400 | 1500 | nearly equivalent to that against wild-type HCV replicon | retained its activity | potent activity | nearly equivalent to that against wild-type HCV replicon | retained its activity | potent activity | – | – | – | – | – | – | – |
| COC(=O)N[C@H](C(=O)N1CCC[C@H]1c1nc2cc([C@H]3CC[C@H](c4cc5nc([C@@H]6CCCN6C(=O)[C@@H](NC(=O)OC)[C@@H](C)OC)[nH]c5cc4F)N3c3cc(F)c(N4CCC(c5ccc(F)cc5)CC4)c(F)c3)c(F)cc2[nH]1)[C@@H](C)OC [Compound 2] | – | no impact | – | – | – | – | – | – | – | – | – | – | ≤ 2 | 22 | 26 | 11 | mild | not reached | – |
| C=CCN1CC[C@]23c4c5ccc(O)c4O[C@H]2C(=O)CC[C@@]3(O)[C@H]1C5 [naloxone] | – | – | – | – | – | – | – | – | – | – | – | – | – | – | – | – | – | – | ≤ 12 |
